Key:
Phytophthora infestans = test: whole plant or invertebrate; type: in vivo; conditions: in Solanum lycopersicum, foliar, read-out: control of Phytophthora infestans compared to untreated control
Plasmopara viticola = test: whole plant or invertebrate; type: in vivo; conditions: foliar, read-out: control of Plasmopara viticola compared to untreated control
Pythium ultimum = Pythium ultimum / liquid culture (seedling damping off); type: cell-based; conditions: Globisporangium ultimum, liquid culture in PDB, 24 °C, 2-3 days after application, read-out: control of Pythium ultimum (inhibition of growth, photometric) compared to untreated control
In short: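 Mycelia fragments and oospores from fresh liquid culture mixed into potato dextrose broth and added to compound in DMSO. Incubated at 24° C.; growth inhibition read photometrically 2–3 days after application.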

COC(=O)Nc1ccc(-c2cnc3ccc(C(=O)N(C)c4cccc(C(F)F)c4)cn23)cn1 [Compound 57, methyl N-[5-[6-[[3-(difluoromethyl)phenyl]-methyl-carbamoyl]imidazo[1,2-a]pyridin-3-yl]-2-pyridyl]carbamate]
≥ 80%: pest or weed control at 200 ppm (Phytophthora infestans) | pest or weed control at 200 ppm (Plasmopara viticola) | inhibition at 20 ppm (Pythium ultimum)

COC(=O)Nc1ccc(-c2cnc3ccc(C(=O)N(C)c4cccc(OC)c4)cn23)cn1 [Compound 63, methyl N-[5-[6-[(3-methoxyphenyl)-methyl-carbamoyl]imidazo[1,2-a]pyridin-3-yl]-2-pyridyl]carbamate]
≥ 80%: pest or weed control at 200 ppm (Phytophthora infestans) | pest or weed control at 200 ppm (Plasmopara viticola) | inhibition at 20 ppm (Pythium ultimum)

COC(=O)Nc1ccc(-c2cnc3ccc(C(=O)N(C)c4ccnc(OC)c4)cn23)cn1 [Compound 70, methyl N-[5-[6-[(2-methoxy-4-pyridyl)-methyl-carbamoyl]imidazo[1,2-a]pyridin-3-yl]-2-pyridyl]carbamate]
≥ 80%: pest or weed control at 200 ppm (Phytophthora infestans) | pest or weed control at 200 ppm (Plasmopara viticola) | inhibition at 20 ppm (Pythium ultimum)

COC(=O)Nc1ccc(-c2cnc3ccc(C(=O)N(C)c4cccc(I)c4)cn23)cn1 [Compound 73, methyl N-[5-[6-[(3-iodophenyl)-methyl-carbamoyl]imidazo[1,2-a]pyridin-3-yl]-2-pyridyl]carbamate]
≥ 80%: pest or weed control at 200 ppm (Phytophthora infestans) | pest or weed control at 200 ppm (Plasmopara viticola) | inhibition at 20 ppm (Pythium ultimum)

COC(=O)Nc1ccc(-c2cnc3ccc(C(=O)N(C)c4ccc(Cl)c(OC)c4)cn23)cn1 [Compound 75, methyl N-[5-[6-[(4-chloro-3-methoxy-phenyl)-methyl-carbamoyl]imidazo[1,2-a]pyridin-3-yl]-2-pyridyl]carbamate]
≥ 80%: pest or weed control at 200 ppm (Phytophthora infestans) | pest or weed control at 200 ppm (Plasmopara viticola) | inhibition at 20 ppm (Pythium ultimum)

COCCN(C(=O)c1ccc2ncc(-c3ccc(NC(=O)OC)nc3)n2c1)c1ccc(F)cc1 [Compound 76, methyl N-[5-[6-[(4-fluorophenyl)-(2-methoxyethyl)carbamoyl]imidazo[1,2-a]pyridin-3-yl]-2-pyridyl]carbamate]
≥ 80%: pest or weed control at 200 ppm (Phytophthora infestans) | pest or weed control at 200 ppm (Plasmopara viticola) | inhibition at 20 ppm (Pythium ultimum)

COC(=O)Nc1ccc(-c2cnc3c(C)cc(C(=O)N(C)c4ccc(F)cc4)cn23)cn1 [Compound 82, methyl N-[5-[6-[(4-fluorophenyl)-methyl-carbamoyl]-8-methyl-imidazo[1,2-a]pyridin-3-yl]-2-pyridyl]carbamate]
≥ 80%: pest or weed control at 200 ppm (Phytophthora infestans) | pest or weed control at 200 ppm (Plasmopara viticola) | inhibition at 20 ppm (Pythium ultimum)

COC(=O)Nc1ccc(-c2cnc3c(OC)cc(C(=O)N(C)c4ccc(F)cc4)cn23)cn1 [Compound 84, methyl N-[5-[6-[(4-fluorophenyl)-methyl-carbamoyl]-8-methoxy-imidazo[1,2-a]pyridin-3-yl]-2-pyridyl]carbamate]
≥ 80%: pest or weed control at 200 ppm (Phytophthora infestans) | pest or weed control at 200 ppm (Plasmopara viticola) | inhibition at 20 ppm (Pythium ultimum)

COC(=O)Nc1ccc(-c2cnc3c(Cl)cc(C(=O)N(C)c4ccc(F)cc4)cn23)cn1 [Compound 85, methyl N-[5-[8-chloro-6-[(4-fluorophenyl)-methyl-carbamoyl]imidazo[1,2-a]pyridin-3-yl]-2-pyridyl]carbamate]
≥ 80%: pest or weed control at 200 ppm (Phytophthora infestans) | pest or weed control at 200 ppm (Plasmopara viticola) | inhibition at 20 ppm (Pythium ultimum)

COC(=O)Nc1ccc(-c2cnc3cc(C)c(C(=O)N(C)c4ccc(F)cc4)cn23)cn1 [Compound 86, methyl N-[5-[6-[(4-fluorophenyl)-methyl-carbamoyl]-7-methyl-imidazo[1,2-a]pyridin-3-yl]-2-pyridyl]carbamate]
≥ 80%: pest or weed control at 200 ppm (Phytophthora infestans) | pest or weed control at 200 ppm (Plasmopara viticola) | inhibition at 20 ppm (Pythium ultimum)

COC(=O)Nc1ccc(-c2cnc3ccc(C(=O)N(CC#N)c4ccc(F)c(OC)c4)cn23)cn1 [Compound 89, methyl N-[5-[6-[cyanomethyl-(4-fluoro-3-methoxy-phenyl)carbamoyl]imidazo [1,2-a]pyridin-3-yl]-2-pyridyl]carbamate]
≥ 80%: pest or weed control at 200 ppm (Phytophthora infestans) | pest or weed control at 200 ppm (Plasmopara viticola) | inhibition at 20 ppm (Pythium ultimum)

COC(=O)Nc1ccc(-c2cnc3ccc(C(=O)N(CC#N)c4ccc(Cl)c(OC)c4)cn23)cn1 [Compound 90, methyl N-[5-[6-[(4-chloro-3-methoxy-phenyl)-(cyanomethyl)carbamoyl]imidazo[1,2-a]pyridin-3-yl]-2-pyridyl]carbamate]
≥ 80%: pest or weed control at 200 ppm (Phytophthora infestans) | pest or weed control at 200 ppm (Plasmopara viticola) | inhibition at 20 ppm (Pythium ultimum)

COCN(C(=O)c1ccc2ncc(-c3ccc(NC(=O)OC)nc3)n2c1)c1ccc(F)c(OC)c1 [Compound 93, methyl N-[5-[6-[(4-fluoro-3-methoxy-phenyl)-(methoxymethyl)carbamoyl]imidazo[1,2-a]pyridin-3-yl]-2-pyridyl]carbamate]
≥ 80%: pest or weed control at 200 ppm (Phytophthora infestans) | pest or weed control at 200 ppm (Plasmopara viticola) | inhibition at 20 ppm (Pythium ultimum)

COCN(C(=O)c1cc(C)c2ncc(-c3ccc(NC(=O)OC)nc3)n2c1)c1ccc(F)c(OC)c1 [Compound 94, methyl N-[5-[6-[(4-fluoro-3-methoxy-phenyl)-(methoxymethyl)carbamoyl]-8-methyl-imidazo[1,2-a]pyridin-3-yl]-2-pyridyl]carbamate]
≥ 80%: pest or weed control at 200 ppm (Phytophthora infestans) | pest or weed control at 200 ppm (Plasmopara viticola) | inhibition at 20 ppm (Pythium ultimum)

COC(=O)Nc1ccc(-c2cnc3c(C)cc(C(=O)N(C)c4ccc(F)c(OC)c4)cn23)cn1 [Compound 95, methyl N-[5-[6-[(4-fluoro-3-methoxy-phenyl)-methyl-carbamoyl]-8-methyl-imidazo[1,2-a]pyridin-3-yl]-2-pyridyl]carbamate]
≥ 80%: pest or weed control at 200 ppm (Phytophthora infestans) | pest or weed control at 200 ppm (Plasmopara viticola) | inhibition at 20 ppm (Pythium ultimum)

COC(=O)Nc1ccc(-c2cnc3ccc(C(=O)N(C)c4ccc(F)c(O)c4)cn23)cn1 [Compound 96, methyl N-[5-[6-[(4-fluoro-3-hydroxy-phenyl)-methyl-carbamoyl]imidazo[1,2-a]pyridin-3-yl]-2-pyridyl]carbamate]
≥ 80%: pest or weed control at 200 ppm (Phytophthora infestans) | pest or weed control at 200 ppm (Plasmopara viticola) | inhibition at 20 ppm (Pythium ultimum)

COC(=O)Nc1ccc(-c2cnc3c(Br)cc(C(=O)N(C)c4ccc(F)cc4)cn23)cn1 [Compound 98, methyl N-[5-[8-bromo-6-[(4-fluorophenyl)-methyl-carbamoyl]imidazo[1,2-a]pyridin-3-yl]-2-pyridyl]carbamate]
≥ 80%: pest or weed control at 200 ppm (Phytophthora infestans) | pest or weed control at 200 ppm (Plasmopara viticola) | inhibition at 20 ppm (Pythium ultimum)

COC(=O)Nc1ccc(-c2cnc3c(NC(C)=O)cc(C(=O)N(C)c4ccc(F)cc4)cn23)cn1 [Compound 100, methyl N-[5-[8-acetamido-6-[(4-fluorophenyl)-methyl-carbamoyl]imidazo[1,2-a]pyridin-3-yl]-2-pyridyl]carbamate]
≥ 80%: pest or weed control at 200 ppm (Phytophthora infestans) | pest or weed control at 200 ppm (Plasmopara viticola) | inhibition at 20 ppm (Pythium ultimum)

CCN(C(=O)c1ccc2ncc(-c3ccc(NC(=O)OC)nc3)n2c1)c1ccc(F)c(F)c1 [Compound 105, methyl N-[5-[6-[(3,4-difluorophenyl)-ethyl-carbamoyl]imidazo[1,2-a]pyridin-3-yl]-2-pyridyl]carbamate]
≥ 80%: pest or weed control at 200 ppm (Phytophthora infestans) | pest or weed control at 200 ppm (Plasmopara viticola) | inhibition at 20 ppm (Pythium ultimum)

COC(=O)Nc1ccc(-c2cnc3ccc(C(=O)N(C)c4ccc(C#N)c(Cl)c4)cn23)cn1 [Compound 107, methyl N-[5-[6-[(3-chloro-4-cyano-phenyl)-methyl-carbamoyl]imidazo[1,2-a]pyridin-3-yl]-2-pyridyl]carbamate]
≥ 80%: pest or weed control at 200 ppm (Phytophthora infestans) | pest or weed control at 200 ppm (Plasmopara viticola) | inhibition at 20 ppm (Pythium ultimum)

COC(=O)Nc1ccc(-c2cnc3ccc(C(=O)N(c4ccc(F)cc4)C4CC4)cn23)cn1 [Compound 110, methyl N-[5-[6-[cyclopropyl-(4-fluorophenyl)carbamoyl]imidazo [1,2-a]pyridin-3-yl]-2-pyridyl]carbamate]
≥ 80%: pest or weed control at 200 ppm (Phytophthora infestans) | pest or weed control at 200 ppm (Plasmopara viticola) | inhibition at 20 ppm (Pythium ultimum)

COC(=O)Nc1ccc(-c2cnc3ccc(C(=O)N(C)c4ccc(F)c(Cl)c4)cn23)cn1 [Compound 113, methyl N-[5-[6-[(3-chloro-4-fluoro-phenyl)-methyl-carbamoyl]imidazo[1,2-a]pyridin-3-yl]-2-pyridyl]carbamate]
≥ 80%: pest or weed control at 200 ppm (Phytophthora infestans) | pest or weed control at 200 ppm (Plasmopara viticola) | inhibition at 20 ppm (Pythium ultimum)

CCN(C(=O)c1ccc2ncc(-c3ccc(NC(=O)OC)nc3)n2c1)c1ccc(F)c(C)c1 [Compound 116, methyl N-[5-[6-[ethyl-(4-fluoro-3-methyl-phenyl)carbamoyl]imidazo [1,2-a]pyridin-3-yl]-2-pyridyl]carbamate]
≥ 80%: pest or weed control at 200 ppm (Phytophthora infestans) | pest or weed control at 200 ppm (Plasmopara viticola) | inhibition at 20 ppm (Pythium ultimum)

CCN(C(=O)c1ccc2ncc(-c3ccc(NC(=O)OC)nc3)n2c1)c1cccc(OC)c1 [Compound 124, methyl N-[5-[6-[ethyl-(3-methoxyphenyl)carbamoyl]imidazo[1,2-a]pyridin-3-yl]-2-pyridyl]carbamate]
≥ 80%: pest or weed control at 200 ppm (Phytophthora infestans) | pest or weed control at 200 ppm (Plasmopara viticola) | inhibition at 20 ppm (Pythium ultimum)

CCN(C(=O)c1ccc2ncc(-c3ccc(NC(=O)OC)nc3)n2c1)c1ccc(F)cc1 [Compound 136, methyl N-[5-[6-[ethyl-(4-fluorophenyl)carbamoyl]imidazo[1,2-a]pyridin-3-yl]-2-pyridyl]carbamate]
≥ 80%: pest or weed control at 200 ppm (Phytophthora infestans) | pest or weed control at 200 ppm (Plasmopara viticola) | inhibition at 20 ppm (Pythium ultimum)

COC(=O)Nc1ccc(-c2cnc3ccc(C(=O)N(CCC#N)c4cccc(OC)c4)cn23)cn1 [Compound 149, methyl N-[5-[6-[2-cyanoethyl-(3-methoxyphenyl)carbamoyl]imidazo[1,2-a]pyridin-3-yl]-2-pyridyl]carbamate]
≥ 80%: pest or weed control at 200 ppm (Phytophthora infestans) | pest or weed control at 200 ppm (Plasmopara viticola) | inhibition at 20 ppm (Pythium ultimum)
